# From patent US11229623B2 (GlaxoSmithKline Intellectual Property (No.2) Limited, priority 2016, dated 2022)
# Target: T1, human TRPV4 (Homo sapiens, UniProt Q9HBA0)
# T1 construct: expressed in transfected cells; host or cells: BHK/AC9 cells transduced with BacMam virus
# Test: FLIPR assay for hTRPV4 expressed in BHK cells: inhibition of Agonist Compound-induced calcium signal
# Type: cell-based
# Conditions: not given
# Procedure, shortened: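 Calcium influx through TRPV4 tracked by Fluo-4 fluorescence on FLIPR. Cells: BHK/AC9 transduced with BacMam-hTRPV4 at MOI 78, 24 h culture post-plating (15,000 cells/well). Dye loading: 2 μM Fluo-4 AM with 500 μM Brilliant Black quencher, 1-1.5 h, room temperature, dark.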
# T1 sequence (Q9HBA0 whole entry): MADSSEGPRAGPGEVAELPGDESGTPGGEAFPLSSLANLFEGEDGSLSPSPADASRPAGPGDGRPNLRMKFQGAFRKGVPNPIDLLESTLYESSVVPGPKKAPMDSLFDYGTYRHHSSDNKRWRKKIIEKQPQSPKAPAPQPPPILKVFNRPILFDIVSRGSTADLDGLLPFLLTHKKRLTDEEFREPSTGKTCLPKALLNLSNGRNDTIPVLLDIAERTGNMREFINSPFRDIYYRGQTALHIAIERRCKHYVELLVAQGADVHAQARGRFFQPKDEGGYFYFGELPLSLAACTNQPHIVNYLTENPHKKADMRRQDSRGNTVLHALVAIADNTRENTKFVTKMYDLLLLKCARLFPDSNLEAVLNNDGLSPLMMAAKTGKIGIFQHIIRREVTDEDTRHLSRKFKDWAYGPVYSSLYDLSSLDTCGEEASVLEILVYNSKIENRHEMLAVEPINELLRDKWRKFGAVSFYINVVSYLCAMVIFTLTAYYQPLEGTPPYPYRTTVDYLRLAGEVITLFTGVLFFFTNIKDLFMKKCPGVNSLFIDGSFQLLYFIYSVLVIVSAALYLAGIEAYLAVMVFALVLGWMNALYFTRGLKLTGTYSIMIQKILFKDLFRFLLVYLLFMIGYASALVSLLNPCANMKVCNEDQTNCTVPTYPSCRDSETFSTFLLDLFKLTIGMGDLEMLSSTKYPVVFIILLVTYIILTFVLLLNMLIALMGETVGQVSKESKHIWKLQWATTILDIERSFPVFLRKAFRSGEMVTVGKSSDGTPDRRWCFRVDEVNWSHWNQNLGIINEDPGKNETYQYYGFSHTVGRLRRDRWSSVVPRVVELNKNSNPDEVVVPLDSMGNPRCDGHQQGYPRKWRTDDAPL
row,Compound,IC50
1,C[C@@H](O)[C@]1(O)CN(S(=O)(=O)c2ccc(Cl)cn2)C[C@@H]1Oc1ccc(C#N)c(F)c1 [Example 195],0.1 to 10 nM

# Same assay, conditions: hTRPV4 FLIPR assay; average in at least one set of experimental runs; read-out: average IC50
row,IC50,Compound
1,3 nM,"N#Cc1cc(C(F)(F)F)ccc1S(=O)(=O)N1C[C@H](Oc2ccc(Cl)cc2)[C@](O)(CO)C1 [Example 6, 2-(((3R,4S)-4-(4-chlorophenoxy)-3-hydroxy-3-(hydromethyl)pyrrolidin-1-yl)sulfonyl)-5-(trifluoromethyl)benzonitrile]"

# Same assay, conditions: hTRPV4 in BHK/AC9 cells, FLIPR calcium signal, agonist at EC80; reported as range class; read-out: IC50
row,Compound,IC50
1,"N#Cc1cc(C(F)(F)F)ccc1S(=O)(=O)N1C[C@H](Oc2ccc(Cl)cc2)[C@](O)(CO)C1 [Example 6, 2-(((3R,4S)-4-(4-chlorophenoxy)-3-hydroxy-3-(hydromethyl)pyrrolidin-1-yl)sulfonyl)-5-(trifluoromethyl)benzonitrile]",0.1 to 10 nM
2,"N#Cc1cc(F)c(O[C@H]2CN(S(=O)(=O)c3ccc(C(F)(F)F)cc3C#N)C[C@@]2(O)CO)cc1F [Example 19, 4-(((3S,4R)-1-((2-cyano-4-(trifluoromethyl)phenyl)sulfonyl)-4-hydroxy-4-(hydroxymethyl)pyrrolidin-3-yl)oxy)-2,5-difluorobenzonitrile]",0.1 to 10 nM
3,"CN1CCO[C@]2(C1)CN(S(=O)(=O)c1ccc(Cl)cc1C#N)C[C@@H]2Oc1ccc(C#N)c(F)c1 [Example 252, 4-(((4S,5R)-2-((4-chloro-2-cyanophenyl)sulfonyl)-9-methyl-6-oxa-2,9-diazaspiro[4.5]decan-4-yl)oxy)-2-fluorobenzonitrile]",0.1 to 10 nM
4,"N#Cc1cc(C(F)(F)F)ccc1S(=O)(=O)N1C[C@H](Oc2cc(F)c(F)c(F)c2)[C@](O)(CO)C1 [Example 26, 2-(((3R,4S)-3-hydroxy-3-(hydroxymethyl)-4-(3,4,5-trifluorophenoxy)pyrrolidin-1-yl)sulfonyl)-5-(trifluoromethyl)benzonitrile]",10 to 100 nM
5,"Cc1cc(C#N)ccc1O[C@H]1CN(S(=O)(=O)c2ccc(C(F)(F)F)cc2C#N)C[C@@]1(O)CO [Example 16, 2-(((3R,4S)-4-(4-cyano-2-methylphenoxy)-3-hydroxy-3-(hydroxymethyl)pyrrolidin-1-yl)sulfonyl)-5-(trifluoromethyl)benzonitrile]",0.1 to 10 nM
6,"O=S(=O)(c1ccc(C(F)(F)F)cc1F)N1C[C@H](Oc2ccc3nonc3c2)[C@](O)(CO)C1 [Example 125, (3R,4S)-4-(benzo[c][1,2,5]oxadiazol-5-yloxy)-1-((2-fluoro-4-(trifluoromethyl)phenyl)sulfonyl)-3-(hydroxymethyl)pyrrolidin-3-ol]",10 to 100 nM
7,"N#Cc1ncc(O[C@H]2CN(S(=O)(=O)c3ccc(Cl)cc3Cl)C[C@@]2(O)CO)cc1F [Example 36, 5-(((3S,4R)-1-((2,4-dichlorophenyl)sulfonyl)-4-hydroxy-4-(hydroxymethyl)pyrrolidin-3-yl)oxy)-3-fluoropicolinonitrile]",0.1 to 10 nM
8,"C[C@H](O)[C@]1(O)CN(S(=O)(=O)c2cccnc2C#N)C[C@@H]1Oc1ccc(C#N)c(F)c1 [Example 203, 3-(((3R,4S)-4-(4-cyano-3-fluorophenoxy)-3-hydroxy-3-((S)-1-hydroxyethyl)pyrrolidin-1-yl)sulfonyl) picolinonitrile]",10 to 100 nM
9,"N#Cc1ccc(O[C@H]2CN(S(=O)(=O)c3sc(Cl)nc3Cl)C[C@@]2(O)CO)cc1F [Example 88, 4-(((3S,4R)-1-((2,4-dichlorothiazol-5-yl)sulfonyl)-4-hydroxy-4-(hydroxymethyl)pyrrolidin-3-yl)oxy)-2-fluorobenzonitrile]",10 to 100 nM
10,"N#Cc1cc(C(F)(F)F)ccc1S(=O)(=O)N1C[C@H](Oc2ccc(C(F)(F)F)cc2)[C@@](O)(CO)C1 [Example 148, 2-(((3S,4S)-3-hydroxy-3-(hydroxymethyl)-4-(4-(trifluoromethyl)phenoxy)pyrrolidin-1-yl)sulfonyl)-5-(trifluoromethyl)benzonitrile]",10 to 100 nM
11,"O=S(=O)(c1ccc(Cl)cc1Cl)N1C[C@H](Oc2ccc(F)c(F)c2)[C@](O)(CO)C1 [Example 4, (3R,4S)-1-((2,4-dichlorophenyl)sulfonyl)-4-(3,4-difluorophenoxy)-3-(hydroxymethyl)pyrrolidin-3-ol]",10 to 100 nM
12,"N#Cc1ccc(O[C@H]2CN(S(=O)(=O)c3ccc(Cl)c4nonc34)C[C@@]2(O)CO)cc1F [Example 59, 4-(((3S,4R)-1-((7-chlorobenzo[c][1,2,5]oxadiazol-4-yl)sulfonyl)-4-hydroxy-4-(hydroxymethyl)pyrrolidin-3-yl)oxy)-2-fluorobenzonitrile]",10 to 100 nM
13,"N#Cc1ccc(O[C@H]2CN(S(=O)(=O)c3ccc(Cl)cc3C#N)C[C@@]23CNC(=O)O3)cc1F [Example 254, 4-(((5S,9S)-7-((4-chloro-2-cyanophenyl)sulfonyl)-2-oxo-1-oxa-3,7-diazaspiro[4.4]nonan-9-yl)oxy)-2-fluorobenzonitrile]",10 to 100 nM
14,"N#Cc1cc(F)ccc1S(=O)(=O)N1C[C@H](Oc2ccc(Cl)cc2)[C@@](O)(CO)C1 [Example 147, 2-(((3S,4S)-4-(4-chlorophenoxy)-3-hydroxy-3-(hydroxymethyl)pyrrolidin-1-yl)sulfonyl)-5-fluorobenzonitrile]",10 to 100 nM
15,"C[C@H](O)[C@]1(O)CN(S(=O)(=O)c2ccc(C(F)(F)F)cc2C#N)C[C@@H]1Oc1ccc(C#N)c(F)c1 [Example 190, 4-(((3S,4R)-1-((2-cyano-4-(trifluoromethyl)phenyl)sulfonyl)-4-hydroxy-4-(1-hydroxyethyl)pyrrolidin-3-yl)oxy)-2-fluorobenzonitrile]",0.1 to 10 nM

# More lines, now with the values ahead:
row,IC50,Compound
1,100 to 1000 nM,"N#Cc1ccc(O[C@H]2CN(S(=O)(=O)c3ccc(OC(F)(F)F)cn3)C[C@@]2(O)CO)cc1F [Example 127, 2-fluoro-4-(((3S,4R)-4-hydroxy-4-(hydroxymethyl)-1-((5-(trifluoromethoxy)pyridin-2-yl)sulfonyl)pyrrolidin-3-yl)oxy)benzonitrile]"
2,0.1 to 10 nM,"N#Cc1ccc(O[C@H]2CN(S(=O)(=O)c3ccc(Br)cn3)C[C@@]2(O)CN)cc1F [Example 251, 4-(((3S,4S)-4-(aminomethyl)-1-((5-bromopyridin-2-yl)sulfonyl)-4-hydroxpyrrolidin-3-yl)oxy)-2-fluorobenzonitrile, 2,2,2-trifluoroacetate]"
3,10 to 100 nM,"CC(C)(O)[C@]1(O)CN(S(=O)(=O)c2ccc(Cl)cn2)C[C@@H]1Oc1ccc(C#N)c(F)c1 [Example 214, 4-(((3S,4S)-1-((5-chloropyridin-2-yl)sulfonyl)-4-hydroxy-4-(2-hydroxypropan-2-yl)pyrrolidin-3-yl)oxy)-2-fluorobenzonitrile]"
4,10 to 100 nM,"N#Cc1ccc(O[C@H]2CN(S(=O)(=O)c3ccc(OC(F)(F)F)cn3)C[C@@]2(O)CN)cc1F [Example 248, 4-(((3S,4S)-4-(aminomethyl)-4-hydroxy-1-((5-(trifluoromethoxy)pyridin-2-yl)sulfonyl)pyrrolidin-3-yl)oxy)-2-fluorobenzonitrile]"
5,0.1 to 10 nM,"N#Cc1cc(C(F)(F)F)ccc1S(=O)(=O)N1C[C@H](Oc2ccc(F)c(F)c2)[C@](O)(CO)C1 [Example 25, 2-(((3R,4S)-4-(3,4-difluorophenoxy)-3-hydroxy-3-(hydroxymethyl)pyrrolidin-1-yl)sulfonyl)-5-(trifluoromethyl)benzonitrile]"
6,10 to 100 nM,"C[C@@H](O)[C@]1(O)CN(S(=O)(=O)c2ccc(C(F)F)cn2)C[C@@H]1Oc1ccc(C#N)c(F)c1 [Example 211, 4-(((3S,4R)-1-((5-(difluoromethyl)pyridin-2-yl)sulfonyl)-4-hydroxy-4-((R)-1-hydroxyethyl)pyrrolidin-3-yl)oxy)-2-fluorobenzonitrile]"
7,10 to 100 nM,"N#Cc1ccc(O[C@H]2CN(S(=O)(=O)c3ccc(C(F)F)cc3)C[C@@]2(O)CO)cc1F [Example 98, 4-(((3S,4R)-1-((4-(difluoromethyl)phenyl)sulfonyl)-4-hydroxy-4-(hydroxymethyl)pyrrolidin-3-yl)oxy)-2-fluorobenzonitrile]"
8,0.1 to 10 nM,"N#Cc1cc(F)ccc1S(=O)(=O)N1C[C@H](Oc2ccc(C(F)(F)F)cc2)[C@](O)(CO)C1 [Example 153, 5-fluoro-2-(((3R,4S)-3-hydroxy-3-(hydroxymethyl)-4-(4-(trifluoromethyl)phenoxy)pyrrolidin-1-yl)sulfonyl)benzonitrile]"
9,0.1 to 10 nM,"N#Cc1ccc(O[C@H]2CN(S(=O)(=O)c3ccc(Br)cc3C#N)C[C@]2(O)CO)cc1F [Example 143, 4-(((3S,4S)-1-((4-bromo-2-cyanophenyl)sulfonyl)-4-hydroxy-4-(hydroxymethyl)pyrrolidin-3-yl)oxy)-2-fluorobenzonitrile]"
10,0.1 to 10 nM,"Cc1ccc(S(=O)(=O)N2C[C@H](Oc3ccc(C#N)c(F)c3)[C@](O)(CO)C2)c(C#N)c1 [Example 216, 4-(((3S,4R)-1-((2-cyano-4-methylphenyl)sulfonyl)-4-hydroxy-4-(hydroxymethyl)pyrrolidin-3-yl)oxy)-2-fluorobenzonitrile]"
11,10 to 100 nM,"N#Cc1cc(C(F)(F)F)ccc1S(=O)(=O)N1C[C@H](Oc2ccc(F)cc2)[C@](O)(CO)C1 [Example 47, 2-(((3R,4S)-4-(4-fluorophenoxy)-3-hydroxy-3-(hydroxymethyl)pyrrolidin-1-yl)sulfonyl)-5-(trifluoromethyl)benzonitrile]"
12,10 to 100 nM,"N#Cc1ccc(O[C@H]2CN(S(=O)(=O)c3ccc(I)cn3)C[C@@]2(O)CO)cc1F [Example 130, 2-fluoro-4-(((3S,4R)-4-hydroxy-4-(hydroxymethyl)-1-((5-iodopyridin-2-yl)sulfonyl)pyrrolidin-3-yl)oxy)benzonitrile]"
13,10 to 100 nM,"N#Cc1ccc(O[C@H]2CN(S(=O)(=O)c3cccc(OC(F)F)n3)C[C@@]2(O)CO)cc1F [Example 134, 4-(((3S,4R)-1-((6-(difluoromethoxy)pyridin-2-yl)sulfonyl)-4-hydroxy-4-(hydroxymethyl)pyrrolidin-3-yl)oxy)-2-fluorobenzonitrile]"
14,10 to 100 nM,"N#Cc1ccc(S(=O)(=O)N2C[C@H](Oc3ccc(C#N)c(F)c3)[C@](O)(CO)C2)nc1 [Example 231, 6-(((3R,4S)-4-(4-cyano-3-fluorophenoxy)-3-hydroxy-3-(hydroxymethyl)pyrrolidin-1-yl)sulfonyl)nicotinonitrile]"
